The record followed here is patent publication US20130259884A1, “PEPTIDES” ([…] SL, priority 2010, published 2013).

Where a SMILES comes first, the peptide text is derived from it. Some results are limits rather than exact numbers.

This data set is described as follows: Water solubility of peptides when preparing stock solutions. The class given is physicochemical. Conditions: stock solution in sterile distilled water or 100% DMSO; read-out: solubility of peptide (water soluble or water insoluble, dissolved in DMSO). As to the method:
For challenge, peptides were administered as follows: • Individual peptides (soluble). Individual water soluble peptides were dissolved as 10, 5 or 2.5 mg/ml stock solutions in sterile distilled water. Before use, each peptide was diluted in water to 2 mg/ml and 10 μl of this 2 mg/ml mix was added to 990 μl of media. Then 100 μl of this peptide/media mix was added to 100 μl of media containing 350,000 PBMC in an ELISPOT anti-IL-4 coated cell culture plate well for a final peptide concentration of 10 μg/ml. Identically diluted media only was added to the cells and used for the no peptide media control wells (media only). • Individual peptides (DMSO). Individual water insoluble peptides were dissolved in 100% DMSO to a stock concentration of 50 mg/ml. Before use each peptide was diluted in water to 2 mg/ml and then 10 μl of the 2 mg/ml mix was added to 990 μl of cell-culture media. Then 100 μl of this peptide/media mix was added to 100 μl of media containing 350,000 PBMC in an ELISPOT anti-IL-4 coated cell culture plate well for a final peptide concentration of 10 μg/ml. Identically diluted media only was added to the cells and used for the no peptide media control wells (media only). • A combination preparation containing Alt a 1 soluble peptides (33.2, 34.3, 35.4, 35.5, 37.3.1, 37.4.1, L6-5.01, L10-1.01, L10-2.01, L10-3), called Alt a 1 Sol. Each peptide was diluted from water stock to 2 mg/ml in sterile distilled water. Then 10 μl of each peptide required for the combined preparation was mixed and brought up to 1 ml in media. Then 100 μl of this peptide/media mix was added to 100 μl of media containing 350,000 PBMC in an ELISPOT anti-IL-4 coated cell culture plate well for a final concentration of each peptide of 10 μg/ml. Identically diluted media only was used for the no peptide control wells (media only). • A combination preparation containing Alt a 1 DMSO peptides (32.2.1, 38.2.1, 35.2, 35.3, L6-2, L6-3, L6-4, 38.3, 37.2), called Alt a 1 DMSO. Each peptide was diluted from DMSO stock to 2 mg/ml in sterile distilled water. Then 10 μl of each peptide required for the combined preparation was mixed and brought up to 1 ml in media. Then 100 μl of this peptide/media mix is added to 100 μl of media containing 350,000 PBMC in an ELISPOT anti-IL-4 coated cell culture plate well for a final concentration of each peptide of 10 μg/ml. Identically diluted media only was used for the no peptide control wells (media only). • A combination preparation containing non-Alt a 1 soluble peptides (40.2, 41.2, 43.2, 44.2, 46.2, 47.2.1, 56.2, 57.2.1, 60.2, 62.2.1, 67.2, 71.3), called Alt a Other Sol. Each peptide was diluted from water stock to 2 mg/ml in sterile distilled water. Then 10 μl of each peptide required for the combined preparation was mixed and brought up to 1 ml in media, Then 100 μl of this peptide/media mix was added to 100 μl of media containing 350,000 PBMC in an ELISPOT anti-IL-4 coated cell culture plate well for a final concentration of each peptide at 10 μg/ml. Identically diluted media only was used for the no peptide control wells (media only). • A combination preparation containing non-Alt a 1 DMSO peptides (39.2, 42.2, 45.2, 48.2.1, 50.2, 51.2.1, 61.2.1, 66.3.1, 68.2.1, 70.2, 71.2, 72.2), called Alt a Other DMSO. Each peptide was diluted from DMSO stock to 2 mg/ml in sterile distilled water. Then 10 ul of each peptide required for the combined preparation was mixed and brought up to 1 ml in media, Then 100 μl of this peptide/media mix was added to 100 μl of media containing 350,000 PBMC in an ELISPOT anti-IL-4 coated cell culture plate well for a final concentration of each peptide at 10 μg/ml. Identically diluted media only was used for the no peptide control wells (media only).
One may read the solubility as the dissolved amount per volume that the medium holds. Consider `CC(C)C[C@H](NC(=O)[C@@H](NC(=O)CNC(=O)[C@H](Cc1c[nH]c2ccccc12)NC(=O)CNC(=O)[C@H](C)NC(=O)CN)C(C)C)C(=O)N[C@H](C(=O)N[C@@H](CO)C(=O)N[C@@H](Cc1c[nH]cn1)C(=O)N[C@@H](CCCNC(=N)N)C(=O)N[C@@H](CO)C(=O)NCC(=O)N[C@@H](CCC(=O)O)C(=O)N[C@H](C(=O)O)[C@@H](C)O)C(C)C` [Peptide 62.2.1, GAGWGVLVSHRSGET] (H-GAGWGVLVSHRSGET-OH), for which the solubility was greater than 2500 µg/mL.

Consider `CC(C)C[C@H](NC(=O)CNC(=O)[C@H](C)NC(=O)[C@H](C)N)C(=O)N[C@@H](C)C(=O)N[C@@H](C)C(=O)N[C@@H](C)C(=O)N[C@@H](C)C(=O)N1CCC[C@H]1C(=O)N[C@@H](CC(C)C)C(=O)N[C@@H](CCC(=O)O)C(=O)N[C@@H](CO)C(=O)N[C@@H](CCCNC(=N)N)C(=O)N[C@@H](CCC(N)=O)C(=O)N[C@@H](CC(=O)O)C(=O)O` [Peptide 33.2, AAGLAAAAPLESRQD] (H-AAGLAAAAPLESRQD-OH), for which the solubility is greater than 2500 µg/mL.

In the case of `CC[C@H](C)[C@H](NC(=O)[C@H](C)N)C(=O)N[C@@H](CCC(=O)O)C(=O)N[C@@H](CC(C)C)C(=O)N[C@@H](CCCCN)C(=O)N[C@@H](CO)C(=O)N[C@H](C(=O)N[C@@H](CC(N)=O)C(=O)N[C@@H](C)C(=O)N[C@@H](CC(C)C)C(=O)N[C@@H](CC(C)C)C(=O)N[C@@H](CC(C)C)C(=O)N[C@@H](CCCCN)C(=O)N[C@H](C(=O)N[C@@H](CC(N)=O)C(=O)O)C(C)C)C(C)C` [Peptide 61.2.1, AIELKSVNALLLKVN] (H-AIELKSVNALLLKVN-OH), the solubility was less than 2500 µg/mL.

In the case of `CC(C)C[C@H](NC(=O)[C@@H](NC(=O)[C@H](C)NC(=O)[C@@H](N)[C@@H](C)O)[C@@H](C)O)C(=O)N1CCC[C@H]1C(=O)N[C@@H](CC(N)=O)C(=O)N[C@@H](Cc1ccc(O)cc1)C(=O)N[C@H](C(=O)N[C@@H](CCCNC(=N)N)C(=O)N[C@@H](C)C(=O)NCC(=O)NCC(=O)N[C@@H](CC(N)=O)C(=O)NCC(=O)N1CCC[C@H]1C(=O)O)C(C)C` [Peptide 37.4.1, TATLPNYVRAGGNGP] (H-TATLPNYVRAGGNGP-OH), the solubility is greater than 2500 µg/mL.

For `CC(C)C[C@H](N)C(=O)N1CCC[C@H]1C(=O)N[C@@H](CC(N)=O)C(=O)N[C@@H](Cc1ccc(O)cc1)C(=O)N[C@H](C(=O)N[C@@H](CCCNC(=N)N)C(=O)N[C@@H](C)C(=O)NCC(=O)NCC(=O)N[C@@H](CC(N)=O)C(=O)NCC(=O)N1CCC[C@H]1C(=O)N[C@@H](CCCCN)C(=O)N[C@@H](CC(=O)O)C(=O)N[C@@H](Cc1ccccc1)C(=O)O)C(C)C` [Peptide L6-5.01, LPNYVRAGGNGPKDF] (H-LPNYVRAGGNGPKDF-OH), the solubility is greater than 2500 µg/mL.

On to `CC[C@H](C)[C@H](NC(=O)[C@H](C)NC(=O)[C@H](Cc1c[nH]c2ccccc12)NC(=O)[C@@H](N)C(C)C)C(=O)N[C@H](C(=O)N[C@@H](CC(C)C)C(=O)N[C@@H](CC(C)C)C(=O)N[C@@H](CO)C(=O)N[C@@H](CC(C)C)C(=O)N[C@H](C(=O)N[C@@H](CCC(N)=O)C(=O)N[C@@H](CC(C)C)C(=O)N[C@H](C(=O)N[C@H](C(=O)N1CCC[C@H]1C(=O)O)[C@@H](C)O)[C@@H](C)O)C(C)C)C(C)C` [Peptide 48.2.1, VWAIVLLSLVQLTTP] (H-VWAIVLLSLVQLTTP-OH), for which the solubility is less than 2500 µg/mL.

As for `CC[C@H](C)[C@H](NC(=O)[C@H](CO)NC(=O)[C@@H](NC(=O)[C@@H](NC(=O)[C@H](CCCCN)NC(=O)[C@@H](NC(=O)[C@H](CCC(N)=O)NC(=O)[C@@H](NC(=O)[C@H](Cc1ccc(O)cc1)NC(=O)[C@H](CC(N)=O)NC(=O)[C@H](CC(=O)O)NC(=O)[C@@H](N)CC(C)C)[C@@H](C)CC)[C@@H](C)O)[C@@H](C)O)C(C)C)C(=O)N[C@@H](CCCNC(=N)N)C(=O)N[C@@H](CC(C)C)C(=O)NCC(=O)O` [Peptide 71.2, LDNYIQTKTVSIRLG] (H-LDNYIQTKTVSIRLG-OH), the solubility is less than 2500 µg/mL.

In the case of `CC(C)C[C@H](NC(=O)[C@H](Cc1ccccc1)NC(=O)[C@H](CO)NC(=O)[C@H](CC(N)=O)NC(=O)[C@H](CCC(=O)O)NC(=O)CNC(=O)[C@@H](NC(=O)[C@H](CO)NC(=O)[C@H](Cc1ccc(O)cc1)NC(=O)[C@H](Cc1c[nH]c2ccccc12)NC(=O)[C@H](CCCCN)NC(=O)[C@H](Cc1c[nH]cn1)NC(=O)[C@@H](N)CC(=O)O)C(C)C)C(=O)N[C@@H](CC(=O)O)C(=O)N[C@@H](Cc1ccccc1)C(=O)O` [Peptide L10-2.01, DHKWYSVGENSFLDF] (H-DHKWYSVGENSFLDF-OH), the solubility was greater than 2500 µg/mL.

As to `CC(C)C[C@H](NC(=O)[C@H](CCCCN)NC(=O)[C@H](CC(=O)O)NC(=O)[C@H](C)NC(=O)[C@H](CCC(N)=O)NC(=O)[C@H](C)NC(=O)[C@H](CO)NC(=O)[C@@H](NC(=O)[C@@H](NC(=O)[C@H](Cc1ccccc1)NC(=O)[C@H](CC(=O)O)NC(=O)[C@H](CC(C)C)NC(=O)[C@@H](NC(=O)CNC(=O)CN)[C@@H](C)O)[C@@H](C)O)C(C)C)C(=O)O` [Peptide L10-1.01, GGTLDFTVSAQADKL] (H-GGTLDFTVSAQADKL-OH), the solubility is greater than 2500 µg/mL.

In the case of `CC[C@H](C)[C@H](NC(=O)[C@@H](NC(=O)[C@@H](NC(=O)[C@H](Cc1ccccc1)NC(=O)[C@H](CCC(N)=O)NC(=O)[C@@H](N)CC(C)C)[C@@H](C)O)[C@@H](C)O)C(=O)N[C@@H](C)C(=O)N[C@@H](CO)C(=O)N[C@@H](CC(C)C)C(=O)N[C@@H](Cc1ccccc1)C(=O)N[C@@H](C)C(=O)N[C@@H](C)C(=O)N[C@@H](C)C(=O)NCC(=O)N[C@@H](CC(C)C)C(=O)O` [Peptide 32.2.1, LQFTTIASLFAAAGL] (H-LQFTTIASLFAAAGL-OH), the solubility was less than 2500 µg/mL.

For the compound `CC(C)C[C@H](NC(=O)[C@H](C)NC(=O)[C@H](CCCNC(=N)N)NC(=O)[C@H](C)N)C(=O)N[C@@H](CCCNC(=N)N)C(=O)N[C@@H](CCCNC(=N)N)C(=O)N[C@@H](CC(C)C)C(=O)N[C@@H](CCCNC(=N)N)C(=O)N[C@H](C(=O)N[C@@H](C)C(=O)N[C@@H](CS)C(=O)N[C@@H](CCC(=O)O)C(=O)N[C@@H](CCCNC(=N)N)C(=O)N[C@@H](C)C(=O)N[C@@H](CCCCN)C(=O)O)[C@@H](C)O` [Peptide 41.2, ARALRRLRTACERAK] (H-ARALRRLRTACERAK-OH; N-terminus and C-terminus assumed), the solubility is greater than 2500 µg/mL.

`CC[C@H](C)[C@H](NC(=O)[C@H](CC(=O)O)NC(=O)[C@H](CC(=O)O)NC(=O)[C@@H](N)CO)C(=O)N[C@H](C(=O)N[C@@H](Cc1ccc(O)cc1)C(=O)N[C@H](C(=O)N[C@@H](C)C(=O)N[C@H](C(=O)N[C@@H](C)C(=O)N[C@H](C(=O)N[C@@H](CC(C)C)C(=O)N1CCC[C@H]1C(=O)N[C@@H](CC(N)=O)C(=O)N[C@@H](Cc1ccc(O)cc1)C(=O)O)[C@@H](C)O)[C@@H](C)O)C(C)C)[C@@H](C)O` [Peptide 37.2, SDDITYVATATLPNY] (H-SDDITYVATATLPNY-OH): the solubility is less than 2500 µg/mL.

With `CC[C@H](C)[C@H](NC(=O)[C@H](CC(N)=O)NC(=O)[C@H](Cc1ccccc1)NC(=O)CNC(=O)[C@H](CC(C)C)NC(=O)[C@H](CO)NC(=O)[C@H](CC(N)=O)NC(=O)[C@H](Cc1ccc(O)cc1)NC(=O)[C@H](Cc1ccc(O)cc1)NC(=O)[C@@H](NC(=O)CN)[C@@H](C)O)C(=O)N[C@@H](CCCCN)C(=O)N[C@@H](C)C(=O)N[C@H](C(=O)N[C@@H](CC(N)=O)C(=O)O)[C@@H](C)O` [Peptide L6-4, GTYYNSLGFNIKATN] (H-GTYYNSLGFNIKATN-OH), the solubility is less than 2500 µg/mL.
